Earlier results in patent US6486349B1, “Amide therapeutics and methods for treating inflammatory bowel disease” (Centaur Pharmaceuticals, Inc., priority 1999, dated 2002).

System: senescence-accelerated mice

Structure (SMILES): CC(C)(C)/[N+]([O-])=C/c1ccccc1 [PBN, α-phenyl-t-butyl nitrone]
- increase of the life span: one third
